Experimental data: PubChem BioAssay (NCI)
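In this assay, cells in 96-well plates receive the compound at five concentrations for 48 hours. Endpoints are linearly interpolated between the surrounding concentrations. TGI: concentration producing complete growth inhibition.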

Legend:
Experiment in all cases: NCI-60 cell line screen, 48 h
[1] = test system: M19-MEL melanoma
[2] = test system: LXFL 529 NSCLC
[3] = test system: SNB-19 CNS
[4] = test system: HOP-18 NSCLC
[5] = test system: TK-10 renal
[6] = test system: SF-268 CNS
[7] = test system: SF-295 CNS
[8] = test system: HOP-92 NSCLC
[9] = test system: SK-MEL-2 melanoma
[10] = test system: ACHN renal
[11] = test system: DLD-1 colon
[12] = test system: DMS 273 small cell lung
[13] = test system: OVCAR-5 ovarian
[14] = test system: A549 NSCLC
[15] = test system: UACC-62 melanoma
[16] = test system: EKVX NSCLC
[17] = test system: SNB-75 CNS
[18] = test system: 786-0 renal
[19] = test system: HCC-2998 colon
[20] = test system: RXF 393 renal
[21] = test system: UO-31 renal
[22] = test system: IGROV1 ovarian
[23] = test system: U251 CNS
[24] = test system: OVCAR-3 ovarian
[25] = test system: SNB-78 CNS
[26] = test system: DMS 114 small cell lung
[27] = test system: MOLT-4 leukemia
[28] = test system: MALME-3M melanoma
[29] = test system: RPMI-8226 leukemia
[30] = test system: UACC-257 melanoma
[31] = test system: SW-620 colon
[32] = test system: A498 renal
[33] = test system: HCT-116 colon
[34] = test system: HCT-15 colon
[35] = test system: SK-OV-3 ovarian
[36] = test system: NCI-H460 lung
[37] = test system: OVCAR-8 ovarian
[38] = test system: CAKI-1 renal
[39] = test system: COLO 205 colon
[40] = test system: OVCAR-4 ovarian
[41] = test system: CCRF-CEM leukemia
[42] = test system: KM12 colon
[43] = test system: KM20L2 colon
[44] = test system: SK-MEL-28 melanoma
[45] = test system: NCI-H522 lung
[46] = test system: LOX IMVI melanoma
[47] = test system: NCI-H23 lung
[48] = test system: SK-MEL-5 melanoma
[49] = test system: NCI-H226 lung
[50] = test system: HT29 colon
[51] = test system: SF-539 CNS
[52] = test system: SN12C renal
[53] = test system: K-562 leukemia
[54] = test system: HL-60(TB) leukemia
[55] = test system: M14 melanoma
[56] = test system: HOP-62 NSCLC
[57] = test system: SR leukemia

For `CCOC(=O)/C(O)=C/c1cc(OC)cc(=O)o1`, the TGI [1] was over 100 µM, the TGI [2] was over 100 µM and the TGI [3] was over 100 µM. The TGI [4] was over 100 µM, the TGI [5] was over 100 µM and the TGI [6] was over 100 µM. It also gave a TGI [7] of over 100 µM, a TGI [8] of over 100 µM and a TGI [9] of over 100 µM. For the same compound, the TGI [10] was over 100 µM, the TGI [11] was over 100 µM and the TGI [12] was over 100 µM. It also gave a TGI [13] of over 100 µM, a TGI [14] of over 100 µM and a TGI [15] of over 100 µM. For the same compound, the TGI [16] was over 100 µM, the TGI [17] was over 100 µM and the TGI [18] was over 100 µM. The TGI [19] was over 100 µM, the TGI [20] was over 100 µM and the TGI [21] was over 100 µM. It also gave a TGI [22] of over 100 µM, a TGI [23] of over 100 µM and a TGI [24] of over 100 µM. For the same compound, the TGI [25] was over 100 µM, the TGI [26] was over 100 µM and the TGI [27] was over 100 µM. It also gave a TGI [28] of over 100 µM, a TGI [29] of over 100 µM and a TGI [30] of over 100 µM. The TGI [31] was over 100 µM, the TGI [32] was over 100 µM and the TGI [33] was over 100 µM. It also gave a TGI [34] of over 100 µM, a TGI [35] of over 100 µM and a TGI [36] of over 100 µM. The TGI [37] was over 100 µM, the TGI [38] was over 100 µM and the TGI [39] was over 100 µM. The TGI [40] was over 100 µM, the TGI [41] was over 100 µM and the TGI [42] was over 100 µM. For the same compound, the TGI [43] was over 100 µM, the TGI [44] was over 100 µM and the TGI [45] was over 100 µM. It also gave a TGI [46] of over 100 µM, a TGI [47] of over 100 µM and a TGI [48] of over 100 µM. It also gave a TGI [49] of over 100 µM, a TGI [50] of over 100 µM and a TGI [51] of over 100 µM. The TGI [52] was over 100 µM, the TGI [53] was over 100 µM and the TGI [54] was over 100 µM. For the same compound, the TGI [55] was over 100 µM.

`CC1CCP(=O)(c2ccccc2)c2ccccc21` (stereo not drawn) was tested, and the TGI [1] was 58.5 µM, the TGI [2] was over 100 µM and the TGI [3] was over 100 µM. The TGI [4] was over 100 µM, the TGI [5] was over 100 µM and the TGI [7] was over 100 µM. The TGI [9] was over 100 µM, the TGI [10] was over 100 µM and the TGI [11] was over 100 µM. It also gave a TGI [12] of 90.2 µM, a TGI [13] of over 100 µM and a TGI [14] of over 100 µM. For the same compound, the TGI [15] was over 100 µM, the TGI [16] was over 100 µM and the TGI [17] was over 100 µM. For the same compound, the TGI [18] was over 100 µM, the TGI [19] was over 100 µM and the TGI [20] was over 100 µM. It also gave a TGI [21] of over 100 µM, a TGI [22] of over 100 µM and a TGI [23] of 53.3 µM. For the same compound, the TGI [24] was over 100 µM, the TGI [25] was over 100 µM and the TGI [56] was over 100 µM. The TGI [26] was over 100 µM, the TGI [27] was 75.4 µM and the TGI [28] was over 100 µM. For the same compound, the TGI [29] was over 100 µM, the TGI [57] was 96.9 µM and the TGI [30] was over 100 µM. For the same compound, the TGI [32] was over 100 µM, the TGI [33] was 46.7 µM and the TGI [34] was over 100 µM. It also gave a TGI [35] of over 100 µM, a TGI [36] of 80.3 µM and a TGI [37] of over 100 µM. For the same compound, the TGI [39] was over 100 µM, the TGI [40] was over 100 µM and the TGI [41] was over 100 µM. The TGI [42] was over 100 µM, the TGI [43] was over 100 µM and the TGI [44] was over 100 µM. It also gave a TGI [45] of over 100 µM, a TGI [46] of 58 µM and a TGI [47] of over 100 µM. For the same compound, the TGI [48] was over 100 µM, the TGI [49] was over 100 µM and the TGI [50] was over 100 µM. It also gave a TGI [51] of over 100 µM, a TGI [52] of 85.6 µM and a TGI [53] of 62.9 µM. It also gave a TGI [54] of 41.1 µM and a TGI [55] of over 100 µM.
